Measured values as given in patent publication US20220098547A1, “HYDROGEL BIOMIMETIC FOR INVASIVE DISEASES” (priority 2018, published 2022).

How the values were obtained:
[1] = test system: TSC2+/− LAM-SMCs; assay: Cell invasion into 3D HA hydrogels, LAM-SMCs; assay type: cell-based, human; details: for invasion, selectivity towards LAM-SMCs vs control SMCs: 80 kinase inhibitor screen, 5 μM, 384-well 3D hydrogel
Protocol: (§1) HA (230 kDa) was functionalized with furfurylamine as previously described^[16] Furanyl-modified HA/MMPx-(maleimide)2 hydrogels were prepared as previously described ^[16] with the following modifications: To prepare 1.0 mL of 0.9% HA hydrogel with 25 μM vitronectin peptide for SMC culture, HA-furanyl (65% furanyl substitution, 9.0 mg HA, 13.3 μmol furanyl) was dissolved in 450 μL of dPBS (adjusted to pH 6.5), and added to 357.7 μL of dPBS (pH 6.5). 150.1 μL of maleimide2-MMP-degradable crosslinker peptide dissolved in 0.1 M MES buffer (pH 5.5, 50 mg/mL, 2.8 μmol of peptide, 5.6 μmol of maleimide) and 3.75 μL of maleimide-vitronectin peptide dissolved in 0.1 M MES buffer (pH 5.5, 12 mg/mL, 25 nmol) were added to the HA-furanyl solution and carefully mixed to prevent the formation of air bubbles. 38.5 μL of a thiolated methyl cellulose solution (2.6 mg/mL MC-SH in DI H2O, 100 nmolfree thiols/mgMC) was then added to this solution and mixed carefully with a pipette. Hydrogel formulations were tuned for lung cancer cells. For culturing primary cells from lung cancer tissue biopsies, 100 μM vitronectin peptides were used. For NCI-H1299, NCI-H446 and human bronchial epithelial cells, 100 μM vitronectin peptides and 100 μM fibronectin peptides were used. To prepare gels in 384-well plates, 15 μL of the hydrogel solutions were added to each well in a 384-well plate and placed in the incubator overnight at 37° C.
(§2) Excess sterile water was then added to wells lining the outside of the plates to prevent hydrogel evaporation. […] Gels were then equilibrated with either RPMI-1640 containing 1% FBS (for lung cancer cells) or M231 SMC media (75 μL, >45 mins). Media was then removed, and for SMC culture, 15 μL of M231 supplemented with 25% SMGS (containing a final FBS concentration of 1%) was added into each well for at least 1 h prior to cell seeding. For drug treatment assays, this 15 μL volume of M231 with 25% SMGS also includes a 5× concentration of the desired drug. For larger drug screening assays, Y-27632 (Rock inhibitor, 10 μM) was used as a negative control for cell invasion, and verteporfin (1 μM) was used as a positive control for cell toxicity (SyTox Green staining). For lung cancer cell culture, cells in RPMI media containing 1% FBS was added to each well.
(§3) SMCs were cultured according to reported protocols.^[12a] In brief, cells were cultured in M231 media with Smooth Muscle Growth Supplement (SMGS) and gentamycin (ThermoFisher Scientific) at 37° C. with 5% CO2. Cells were passaged using 0.05% trypsin/EDTA for 3 min at 37° C., and inhibited using M231 media. 3000 cells in 45 μL of M231 without SMGS were added to each well of a 384-well plate containing 3D HA hydrogels.
(§4) After 5 days of culture in 3D HA gels, 30 μL media was carefully removed. To each well, 20 μL of a solution containing SyTox Green (1/50,000) in PBS was added and incubated for 1.5 h at 37° C. Gels were then carefully washed with PBS twice. Cells were then fixed with 4% PFA for 1.5 h in the dark at room temperature. PFA was removed and gels were washed with PBS. A solution of Hoechst (1/1000, 20 μL) was then added to each well for at least 1.5 h in the dark, followed by washing with PBS (3 times). To label the gel surface, fluorescent microspheres (100 nm, orange, Phosphorex) were diluted in PBS (1/100) and centrifuged to separate larger, aggregated microspheres. 20 μL of the resulting supernatant were then added to each well and the 384-well plate was left undisturbed overnight. For drug screening experiments involving treatment with 80 drugs simultaneously, silica gel particles (40-63 μm, 230-400 mesh, SiliCycle) were used to label the […]. A slurry solution (5 mg/mL) of silica gel particles in PBS containing 0.01% sodium azide was mixed and immediately added to each well. Particles settled after 20 seconds and plates could be immediately imaged.
(§5) Z-stacked images were obtained using a Cellomics high content imaging instrument as described above. […]

[2] = test system: TSC2+/− LAM-SMCs; assay: Cell viability (SyTox Green), LAM-SMCs; assay type: cell-based, human; details: for cell viability, selectivity towards LAM-SMCs vs control SMCs: 80 kinase inhibitor screen, 5 μM, 384-well 3D hydrogel
Protocol: as §1, §2, §3, §4, §5

[3] = test system: MMP9; assay: Gelatin zymography of conditioned media (MMP9 secretion), LAM-SMCs; assay type: cell-based, human; details: Y-27632 treatment (10 μM per FIG. 8 legend)
Protocol: After 1 day of culture, conditioned media from 384-well plates was collected from each well for gelatin zymography. 8% polyacrylamide (PA) gels were used, and were prepared as previously described^[22] In general, the separating gel component of the zymography gels comprised 7.5 mL of 1.5 M Tris buffer (pH 8.8), 8.0 mL polyacrylamide solution (30%), 10.2 mL gelatin A (3 mg/mL), 2.7 mL water, 300 μL SDS, 300 μL 10% ammonium persulfate, and 36 μL TEMED. The separating gel was allowed to gel for 40 min at room temperature. The stacking gel was then prepared by mixing 5.0 mL of 0.5 M Tris buffer (pH 6.8), 2.6 mL polyacrylamide solution (30%), 12.2 mL water, 200 μL SDS, 150 μL 10% ammonium persulfate, and 30 μL TEMED. The stacking gel was poured on top of each gel and allowed to sit for 40 mins.
For each sample, 12 μL of conditioned media was mixed with 3 μL loading dye, and 12 μL was loaded into each lane. Running buffer comprising 25 mM Tris, 190 mM glycine and 0.1% SDS was used for gel electrophoresis. Following protein separation on the PA gels, gels were washed in 2.5% Triton X (3 times, 10 min each) to remove residual SDS, followed by DI water (5 times, 30 min each). Gels were then placed in an incubation buffer (50 mM Tris buffer pH 7.5 containing 5 mM CaCl2, 200 mM NaCl) and incubated at 37° C. overnight. […]

[4] = test system: TSC2+/+ control SMCs; assay: Cell invasion into 3D HA hydrogels, control SMCs; assay type: cell-based, human; details: Y-27632 treatment (10 μM per FIG. 8 legend)
Protocol: as §1, with “To prepare gels in 384-well plates, 15 μL of the hydrogel solutions were added to each well in a 384-well plate and placed in the incubator overnight at 37° C.” left out

[5] = test system: VEGF-A; details: some glioblastoma patients; cited from earlier work
VEGF-A, sequence (P15692 207-311 limits assumed): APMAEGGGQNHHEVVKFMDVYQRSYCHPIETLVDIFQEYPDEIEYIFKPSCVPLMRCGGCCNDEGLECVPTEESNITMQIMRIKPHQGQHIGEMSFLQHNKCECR

Row | Compound | invasion, selectivity towards LAM-SMCs vs control SMCs [1] | cell viability, selectivity towards LAM-SMCs vs control SMCs [2] | further results
1 | CN1CCC(c2c(O)cc(O)c3c(=O)cc(-c4ccccc4Cl)oc23)C1CO (single isomer, unassigned; (+)) [(+)-P276] | selective decrease | selective decrease | 
2 | Cc1ncc(-c2ccnc(Nc3ccc(S(C)(=O)=O)cc3)n2)n1C(C)C [AZD5438] | selective decrease | selective decrease | 
3 | Nc1nc(Nc2ccc(S(N)(=O)=O)cc2)nn1C(=S)Nc1c(F)cccc1F [Cdk1/2 inhibitor] | selective decrease | selective decrease | 
4 | Cc1cc(Nc2cc(N3CCN(C)CC3)nc(/C=C/c3ccccc3)n2)n[nH]1 [ENMD-2076] | selective decrease | selective decrease | 
5 | CNC(=O)[C@H](Cc1c[nH]c2ccccc12)NC(=O)[C@@H](CC(=O)NO)CC(C)C [GM6001] |  |  | cell invasion ([1]; 10 μM, invasive LAM-SMCs, 3D hydrogels): modest, yet statistically significant decrease in cell invasion
6 | CC(C)CC(=O)Nc1[nH]nc2c1CN(C(=O)C1CCN(C)CC1)C2(C)C [PHA-793887] | selective decrease | selective decrease | 
7 | C[C@@H](N)[C@H]1CC[C@H](C(=O)Nc2ccncc2)CC1 [Y-27632] |  |  | cell invasion ([1]; Y-27632 treatment (10 μM per FIG. 8 legend), LAM-SMCs): significantly decreased cell invasion; MMP9 secretion levels [3]: neither cell viability nor MMP9 secretion levels of LAM-SMCs were affected; cell invasion [4]: significantly decreased cell invasion; cell viability ([2]; Y-27632 treatment (10 μM per FIG. 8 legend), LAM-SMCs, 3D HA gels): neither cell viability nor MMP9 secretion levels of LAM-SMCs were affected
8 | TC-A 2317 NCI | selective decrease | selective decrease | 
9 | bevacizumab |  |  | tumor metastasis [5]: increased tumor metastasis; tumor size [5]: decreased tumor sizes
